Data reported in patent publication US20130065818A1, “Arylamide Compounds And Compositions And Uses Thereof” (POLYMEDIX, priority 2006, published 2013).
Converted amounts (≈) assume the structure as drawn. Read-outs that look alike come from different tables or passages of the source.

Assays:
[1] = tested on: Pseudomonas aeruginosa; test: MIC, 25 ocular isolates, broth microdilution (Example 8); format: cell-based
Procedure: (§1) • Mueller-Hinton Broth in tubes was inoculated with 25 ocular isolates of Staphylococcus aureus fluoroquinolone-susceptible, Staphylococcus aureus fluoroquinolone-resistant, Staphylococcus epidermidis (Coagulase-negative Staphylococcus) fluoroquinolone-susceptible, Staphylococcus epidermidis (Coagulase-negative Staphylococcus) fluoroquinolone-resistant, Pseudomonas aeruginosa and Serratia marcescens, plus two controls (Staphylococcus aureus and E. coli) and incubated at 37° C. overnight on a shaker set at 250 rpm.
(§2) On the day of testing, a 640 μg/ml (1280 μg/ml for Serratia marcescens and Pseudomonas aeruginosa) concentration was prepared from a 1% stock solution in 0.01% acetic acid, 0.2% BSA in polypropylene tubes.
(§3) Serial doubling dilutions in 0.01% acetic acid, 0.2% BSA in 96 well polypropylene plates, which are used as reservoirs for the inoculation of the test plates, were carried out to obtain serial dilutions of test agents at 10 times the required test concentrations: 640, 320, 160, 80, 40, 20, 10, 5, 2.5, 1.25, and 0.625 μg/ml (1280, 640, 320, 160, 80, 40, 20, 10, 5, 2.5, and 1.25 μg/ml for Serratia marcescens and Pseudomonas aeruginosa).
(§4) Ten μl of diluted 10×test agents was added to each well of one row of the 96 well polypropylene plates from column 2 to column 12 (column 1 is a control for bacteria alone, with no peptide). Test agent concentrations in columns 2-12 were as follows: 64, 32, 16, 8, 4, 2, 1, 0.5, 0.25, 0.125, and 0.0625 μg/ml (128, 64, 32, 16, 8, 4, 2, 1, 0.5, 0.25, and 0.125 μg/ml for Serratia marcescens and Pseudomonas aeruginosa). The same peptide was in each of the 8 rows. One plate contained dilutions of one test agent and 8 bacterial isolates.
(§5) On the day of testing, the overnight bacterial broth cultures of Staphylococcus aureus fluoroquinolone-susceptible, Staphylococcus aureus fluoroquinolone-resistant, Staphylococcus epidermidis (Coagulase-negative Staphylococcus) fluoroquinolone-susceptible, Staphylococcus epidermidis (Coagulase-negative Staphylococcus) fluoroquinolone-resistant, Serratia marcescens, and Pseudomonas aeruginosa, plus two controls (Staphylococcus aureus and E. coli) were diluted in 5 ml of trypticase soy broth to yield turbidity equal to a 0.5 McFarland standard. The final inoculum for MIC testing for Staphylococcus aureus fluoroquinolone-susceptible, Staphylococcus aureus fluoroquinolone-resistant, Staphylococcus epidermidis (Coagulase-negative Staphylococcus) fluoroquinolone-susceptible, Staphylococcus epidermidis (Coagulase-negative Staphylococcus) fluoroquinolone-resistant, Serratia marcescens, and Pseudomonas aeruginosa was achieved by placing 0.05 ml of the turbidity adjusted sample to 5 ml of Mueller-Hinton broth.
(§6) Ninety μl of the bacterial suspensions was dispensed in each well from column 1 to column 12. Each bacterial isolate was placed in one row of a 96 well polypropylene plate containing the test agents. The plates were placed on shaker at 15 minutes at room temperature, and then incubated at 37° C. overnight. MICs were determined visually as the lowest concentration of drug that inhibits visible bacterial growth.

[2] = tested on: Staphylococcus epidermidis (Coagulase-negative Staphylococcus) fluoroquinolone-susceptible; test: as above; format: cell-based
Procedure: as §1, §2, §3, §4, §5, §6

## N=C(N)NCCCCC(=O)Nc1cc(C(F)(F)F)cc(NC(=O)c2cnc(C(=O)Nc3cc(C(F)(F)F)cc(NC(=O)CCCCNC(=N)N)c3SCCN)cn2)c1SCCN [Oligomer 5]
[1]; 25 isolates, Row 13
  MIC50: 64 µg/mL (≈ 69.8 µM)
[1]; 25 isolates, Summary of Results, >128 was Replaced with 256
  Range of MICs: 4 to 256 µg/mL
[1]; Pseudomonas aeruginosa, 25 ocular isolates, read-out: Median MIC
  MIC: 64 µg/mL (≈ 69.8 µM)
[1]; Pseudomonas aeruginosa, isolate 1—K1673, read-out: MIC
  MIC: 32 µg/mL (≈ 34.9 µM)
[1]; Pseudomonas aeruginosa, isolate 2—K1668, read-out: MIC
  MIC: 64 µg/mL (≈ 69.8 µM)
[1]; Pseudomonas aeruginosa, isolate 3—K1662, read-out: MIC
  MIC: 64 µg/mL (≈ 69.8 µM)
[1]; Pseudomonas aeruginosa, isolate 4—K1657, read-out: MIC
  MIC: 64 µg/mL (≈ 69.8 µM)
[1]; Pseudomonas aeruginosa, isolate 5—K1651, read-out: MIC
  MIC: 128 µg/mL (≈ 140 µM)
[1]; Pseudomonas aeruginosa, isolate 6—K1649, read-out: MIC
  MIC: 64 µg/mL (≈ 69.8 µM)
[1]; Pseudomonas aeruginosa, isolate 7—K1564, read-out: MIC
  MIC: > 128 µg/mL
[1]; Pseudomonas aeruginosa, isolate 8—K1636, read-out: MIC
  MIC: 4 µg/mL (≈ 4.36 µM)
[1]; Pseudomonas aeruginosa, isolate 9—K1634, read-out: MIC
  MIC: 128 µg/mL (≈ 140 µM)
[1]; Pseudomonas aeruginosa, isolate 10—K1633, read-out: MIC
  MIC: 64 µg/mL (≈ 69.8 µM)
[1]; Pseudomonas aeruginosa, isolate 11—K1632, read-out: MIC
  MIC: 64 µg/mL (≈ 69.8 µM)
[1]; Pseudomonas aeruginosa, isolate 12—K1631, read-out: MIC
  MIC: 64 µg/mL (≈ 69.8 µM)
[1]; Pseudomonas aeruginosa, isolate 13—K1629, read-out: MIC
  MIC: 64 µg/mL (≈ 69.8 µM)
[1]; Pseudomonas aeruginosa, isolate 14—K1627, read-out: MIC
  MIC: 64 µg/mL (≈ 69.8 µM)
[1]; Pseudomonas aeruginosa, isolate 15—K1626, read-out: MIC
  MIC: 128 µg/mL (≈ 140 µM)
[1]; Pseudomonas aeruginosa, isolate 16—K1625, read-out: MIC
  MIC: 64 µg/mL (≈ 69.8 µM)
[1]; Pseudomonas aeruginosa, isolate 17—K1562, read-out: MIC
  MIC: 128 µg/mL (≈ 140 µM)
[1]; Pseudomonas aeruginosa, isolate 18—K1613, read-out: MIC
  MIC: 32 µg/mL (≈ 34.9 µM)
[1]; Pseudomonas aeruginosa, isolate 19—K1553, read-out: MIC
  MIC: 128 µg/mL (≈ 140 µM)
[1]; Pseudomonas aeruginosa, isolate 20—K1594, read-out: MIC
  MIC: 64 µg/mL (≈ 69.8 µM)
[1]; Pseudomonas aeruginosa, isolate 21—K1588, read-out: MIC
  MIC: 128 µg/mL (≈ 140 µM)
[1]; Pseudomonas aeruginosa, isolate 22—K1554, read-out: MIC
  MIC: 128 µg/mL (≈ 140 µM)
[1]; Pseudomonas aeruginosa, isolate 23—K1580, read-out: MIC
  MIC: 32 µg/mL (≈ 34.9 µM)
[1]; Pseudomonas aeruginosa, isolate 24—K1577, read-out: MIC
  MIC: 64 µg/mL (≈ 69.8 µM)
[1]; Pseudomonas aeruginosa, isolate 25—K1576, read-out: MIC
  MIC: 128 µg/mL (≈ 140 µM)
[1]; Pseudomonas aeruginosa, n=25 per group, read-out: Median MIC
  MIC: 64 µg/mL (≈ 69.8 µM)
[1]; Pseudomonas aeruginosa, 25 isolates, Summary of Results, read-out: MIC50
  MIC50: 64 µg/mL (≈ 69.8 µM)
[1]; Pseudomonas aeruginosa, 25 isolates, Summary of Results, read-out: MIC90
  MIC90: 128 µg/mL (≈ 140 µM)
[1]; Pseudomonas aeruginosa, 25 isolates, Summary of Results, read-out: Median MIC
  MIC: 64 µg/mL (≈ 69.8 µM)
[1]; n=25 per group
  MIC50: 64 µg/mL (≈ 69.8 µM)
  MIC90: 128 µg/mL (≈ 140 µM)
  Range of MICs: 4 to 256 µg/mL
[2]; 25 isolates, Row 13
  MIC50: 0.125 µg/mL (≈ 0.136 µM)
[2]; 25 isolates, Row 22
  MIC90: 0.25 µg/mL (≈ 0.273 µM)
[2]; 25 isolates, Summary of Results, <0.0625 was Replaced with 0.03125
  Range of MICs: 0.03125 to 0.25 µg/mL
[2]; Staphylococcus epidermidis, 25 ocular isolates, read-out: Median MIC
  MIC: ≤ 0.25 µg/mL
[2]; Staphylococcus epidermidis, isolate 1—E511, read-out: MIC
  MIC: 0.25 µg/mL (≈ 0.273 µM)
[2]; Staphylococcus epidermidis, isolate 2—E489, read-out: MIC
  MIC: 0.125 µg/mL (≈ 0.136 µM)
[2]; Staphylococcus epidermidis, isolate 3—E491, read-out: MIC
  MIC: 0.125 µg/mL (≈ 0.136 µM)
[2]; Staphylococcus epidermidis, isolate 4—E476, read-out: MIC
  MIC: 0.25 µg/mL (≈ 0.273 µM)
[2]; Staphylococcus epidermidis, isolate 5—E473, read-out: MIC
  MIC: 0.125 µg/mL (≈ 0.136 µM)
[2]; Staphylococcus epidermidis, isolate 6—E462, read-out: MIC
  MIC: 0.125 µg/mL (≈ 0.136 µM)
[2]; Staphylococcus epidermidis, isolate 7—E460, read-out: MIC
  MIC: 0.125 µg/mL (≈ 0.136 µM)
[2]; Staphylococcus epidermidis, isolate 8—E453, read-out: MIC
  MIC: 0.125 µg/mL (≈ 0.136 µM)
[2]; Staphylococcus epidermidis, isolate 9—E448, read-out: MIC
  MIC: 0.125 µg/mL (≈ 0.136 µM)
[2]; Staphylococcus epidermidis, isolate 10—E443, read-out: MIC
  MIC: < 0.0625 µg/mL
[2]; Staphylococcus epidermidis, isolate 11—E441, read-out: MIC
  MIC: 0.125 µg/mL (≈ 0.136 µM)
[2]; Staphylococcus epidermidis, isolate 12—E438, read-out: MIC
  MIC: 0.125 µg/mL (≈ 0.136 µM)
[2]; Staphylococcus epidermidis, isolate 13—E437, read-out: MIC
  MIC: 0.125 µg/mL (≈ 0.136 µM)
[2]; Staphylococcus epidermidis, isolate 14—E434, read-out: MIC
  MIC: 0.125 µg/mL (≈ 0.136 µM)
[2]; Staphylococcus epidermidis, isolate 15—E433, read-out: MIC
  MIC: 0.125 µg/mL (≈ 0.136 µM)
[2]; Staphylococcus epidermidis, isolate 16—E430, read-out: MIC
  MIC: 0.125 µg/mL (≈ 0.136 µM)
[2]; Staphylococcus epidermidis, isolate 17—E420, read-out: MIC
  MIC: 0.125 µg/mL (≈ 0.136 µM)
[2]; Staphylococcus epidermidis, isolate 18—E419, read-out: MIC
  MIC: 0.125 µg/mL (≈ 0.136 µM)
[2]; Staphylococcus epidermidis, isolate 19—E403, read-out: MIC
  MIC: 0.125 µg/mL (≈ 0.136 µM)
[2]; Staphylococcus epidermidis, isolate 20—E394, read-out: MIC
  MIC: 0.125 µg/mL (≈ 0.136 µM)
[2]; Staphylococcus epidermidis, isolate 21—E393, read-out: MIC
  MIC: 0.125 µg/mL (≈ 0.136 µM)
[2]; Staphylococcus epidermidis, isolate 22—E328, read-out: MIC
  MIC: 0.25 µg/mL (≈ 0.273 µM)
[2]; Staphylococcus epidermidis, isolate 23—E382, read-out: MIC
  MIC: 0.125 µg/mL (≈ 0.136 µM)
[2]; Staphylococcus epidermidis, isolate 24—E381, read-out: MIC
  MIC: 0.25 µg/mL (≈ 0.273 µM)
[2]; Staphylococcus epidermidis, isolate 25—E372, read-out: MIC
  MIC: < 0.0625 µg/mL
[2]; Staphylococcus epidermidis, n=25 per group, read-out: Median MIC
  MIC: 0.125 µg/mL (≈ 0.136 µM)
[2]; Staphylococcus epidermidis, 25 isolates, Summary of Results, read-out: MIC50
  MIC50: 0.125 µg/mL (≈ 0.136 µM)
[2]; Staphylococcus epidermidis, 25 isolates, Summary of Results, read-out: MIC90
  MIC90: 0.25 µg/mL (≈ 0.273 µM)
[2]; Staphylococcus epidermidis, 25 isolates, Summary of Results, read-out: Median MIC
  MIC: 0.125 µg/mL (≈ 0.136 µM)
[2]; n=25 per group
  MIC50: 0.125 µg/mL (≈ 0.136 µM)
  MIC90: 0.25 µg/mL (≈ 0.273 µM)
  Range of MICs: 0.03125 to 0.25 µg/mL
